pIC50: −log10 of the molar value. Structures can show the parent of a compound that is named as a salt.
Test system: Phosphorylated eIF4E
Test: peIF4E Signaling Cellular Assay (CisBio peIF4E HTRF)
Type: cell-based
Conditions: cells incubated with compound for 2 hrs at 37° C., 12-point curve
Description: Phosphorylated eIF4E is assayed using the CisBio peIF4E HTRF® assay kit (CisBio, catalogue No. 64EF4PEG). Cells are plated in 96-well tissue-culture treated plate in appropriate growth medium (90 μL). Compounds (10×) are diluted using 3-fold serial dilutions in cell culture medium and added to cells. Plates are incubated for 2 hrs at 37° C. The cell supernatant is carefully removed either by aspirating supernatant or by flicking the plate. Immediately 50 μL of supplemented lysis buffer (1×) is added and incubated for at least 30 minutes at room temperature under shaking. After homogenization by pipeting up and down, 16 μL of cell lysate is transferred from the 96-well cell-culture plate to a 384-well small volume white plate. 4 μL of premixed antibody solutions (vol/vol) is prepared in the detection buffer and added. The plate is covered with a plate sealer and incubated overnight at room temperature. The fluorescence emissions at two different wavelengths are read (665 nm and 620 nm) on a Wallac Victor2. Emission ratios are converted into percent inhibitions and imported into GraphPad Prism software. […] IC50 values are determined using a nonlinear regression model available in GraphPad Prism 5.

`Cc1c(N)ncnc1Nc1cc(C(F)F)c2c(c1)C1(CCCCC1)NC2=O` [Cpd. No. 88, 6′-((6-amino-5-methylpyrimidin-4-yl)amino)-4′-(difluoromethyl)spiro[cyclohexane-1,1′-isoindolin]-3′-one] and `Cc1c(N)ncnc1Nc1cc(F)c2c(c1)C1(CCCCC1)NC2=O` [Cpd. No. 89, 6′-((6-amino-5-methylpyrimidin-4-yl)amino)-4′-fluorospiro[cyclohexane-1,1′-isoindolin]-3′-one] fall in the same range of pIC50: 6.00 to 7.30 for the first, 6.00 to 7.30 for the second.

Compared with `Cc1cc(Nc2ncnc(N)c2C)cc2c1C(=O)NC21CCN(C)CC1` [Cpd. No. 62, 6-((6-amino-5-methylpyrimidin-4-yl)amino)-1′,4-dimethylspiro[isoindoline-1,4′-piperidin]-3-one], `COc1c(N)ncnc1Nc1cc(C)c2c(c1)C1(CCN(C)CC1)NC2=O` [Cpd. No. 68, 6-((6-amino-5-methoxypyrimidin-4-yl)amino)-1′,4-dimethylspiro[isoindoline-1,4′-piperidin]-3-one] is higher in pIC50: 4.00 to 6.00 for the first, 6.00 to 7.30 for the second.

`Cc1cc(Nc2ncnc(N)c2C)cc2c1C(=O)NC21CCN(CC(F)F)CC1` [Cpd. No. 66, 6-((6-amino-5-methylpyrimidin-4-yl)amino)-1′-(2,2-difluoroethyl)-4-methylspiro[isoindoline-1,4′-piperidin]-3-one] and `COc1c(N)ncnc1Nc1cc(C)c2c(c1)C1(CCN(CC(F)F)CC1)NC2=O` [Cpd. No. 69, 6-((6-amino-5-methoxypyrimidin-4-yl)amino)-1′-(2,2-difluoroethyl)-4-methylspiro[isoindoline-1,4′-piperidin]-3-one] fall in the same range of pIC50: 6.00 to 7.30 for the first, 6.00 to 7.30 for the second.

`Cc1cc(Nc2ncncc2C(N)=O)cc2c1C(=O)NC21CCCCC1` [Cpd. No. 64, 4-((4′-methyl-3′-oxospiro[cyclohexane-1,1′-isoindolin]-6′-yl)amino)pyrimidine-5-carboxamide] and `Cc1cc(Nc2ncncc2C#N)cc2c1C(=O)NC21CCCCC1` [Cpd. No. 63, 4-((4′-methyl-3′-oxospiro[cyclohexane-1,1′-isoindolin]-6′-yl)amino)pyrimidine-5-carbonitrile] fall in the same range of pIC50: 6.00 to 7.30 for the first, 6.00 to 7.30 for the second.

First: Cc1cc(Nc2ncnc(N)c2OC(F)F)cc2c1C(=O)NC21CCCCC1 [Cpd. No. 84, 6′-((6-amino-5-(difluoromethoxy)pyrimidin-4-yl)amino)-4′-methylspiro[cyclohexane-1,1′-isoindolin]-3′-one]
Second: Cc1cc(Nc2ncnc(N)c2OC(F)(F)F)cc2c1C(=O)NC21CCCCC1 [Cpd. No. 83, 6′-((6-amino-5-(trifluoromethoxy)pyrimidin-4-yl)amino)-4′-methylspiro[cyclohexane-1,1′-isoindolin]-3′-one]
The pIC50 of the first is lower: 6.00 to 7.30 for the first, over 7.30 for the second.

`Cc1cc(Nc2cc(N)ncn2)nc2c1C(=O)NC21CCCCC1` [Cpd. No. 70, 2′-((6-aminopyrimidin-4-yl)amino)-4′-methylspiro[cyclohexane-1,7′-pyrrolo[3,4-b]pyridin]-5′(6′H)-one] and `Cc1cc(Nc2ncnc(N)c2Cl)nc2c1C(=O)NC21CCCCC1` [Cpd. No. 73, 2′-((6-amino-5-chloropyrimidin-4-yl)amino)-4′-methylspiro[cyclohexane-1,7′-pyrrolo[3,4-b]pyridin]-5′(6′H)-one] cannot be ordered by pIC50: over 7.30 for the first, over 7.30 for the second.

First: Cc1cc(Nc2ncncc2C#N)cc2c1C(=O)NC21CCN(CC(F)F)CC1 [Cpd. No. 67, 4-((1′-(2,2-difluoroethyl)-4-methyl-3-oxospiro[isoindoline-1,4′-piperidin]-6-yl)amino)pyrimidine-5-carbonitrile]
Second: COc1cncnc1Nc1cc(C)c2c(c1)C1(CCN(CC(F)F)CC1)NC2=O [Cpd. No. 65, 1′-(2,2-difluoroethyl)-6-((5-methoxypyrimidin-4-yl)amino)-4-methylspiro[isoindoline-1,4′-piperidin]-3-one]
The pIC50 of the first is lower: 4.00 to 6.00 for the first, 6.00 to 7.30 for the second.

First: CCc1cc(Nc2ncnc(N)c2C)cc2c1C(=O)NC21CCCCC1 [Cpd. No. 90, 6′-((6-amino-5-methylpyrimidin-4-yl)amino)-4′-ethylspiro [cyclohexane-1,1′-isoindolin]-3′-one]
Second: Cc1c(N)ncnc1Nc1cc(O)c2c(c1)C1(CCCCC1)NC2=O [Cpd. No. 92, 6′-((6-amino-5-methylpyrimidin-4-yl)amino)-4′-hydroxyspiro[cyclohexane-1,1′-isoindolin]-3′-one]
The pIC50 of the first is higher: 6.00 to 7.30 for the first, 4.00 to 6.00 for the second.

`Cc1cc(Nc2ncnc(N)c2C)cc2c1C(=O)NC21CCOCC1` [Cpd. No. 74, 6-((6-amino-5-methylpyrimidin-4-yl)amino)-4-methyl-2′,3′,5′,6′-tetrahydrospiro[isoindoline-1,4′-pyran]-3-one] and `CSc1c(N)ncnc1Nc1cc(C)c2c(c1)C1(CCCCC1)NC2=O` [Cpd. No. 85, 6′-((6-amino-5-(methylthio)pyrimidin-4-yl)amino)-4′-methylspiro[cyclohexane-1,1′-isoindolin]-3′-one trifluoroacetic acid salt] fall in the same range of pIC50: 6.00 to 7.30 for the first, 6.00 to 7.30 for the second.

Compared with `Cc1cc(Nc2ncnc(N)c2C)c(Cl)c2c1C(=O)NC21CCCCC1` [Cpd. No. 96, 6′-((6-amino-5-methylpyrimidin-4-yl)amino)-7′-chloro-4′-methylspiro[cyclohexane-1,1′-isoindolin]-3′-one], `Cc1cc(Nc2ncnc(N)c2C)c(O)c2c1C(=O)NC21CCCCC1` [Cpd. No. 93, 6′-((6-amino-5-methylpyrimidin-4-yl)amino)-7′-hydroxy-4′-methylspiro[cyclohexane-1,1′-isoindolin]-3′-one] is higher in pIC50: 4.00 to 6.00 for the first, 6.00 to 7.30 for the second. The second is the more potent here.

First: Cc1cc(Nc2ncnc(N)c2C)cc2c1C(=O)CC21CCCCC1 [Cpd. No. 110, 6′-((6-amino-5-methylpyrimidin-4-yl)amino)-4′-methylspiro[cyclohexane-1,1′-inden]-3′(2′H)-one]
Second: COc1cc(Nc2ncnc(N)c2C)cc2c1C(=O)NC21CCCCC1 [Cpd. No. 78, 6′-((6-amino-5-methylpyrimidin-4-yl)amino)-4′-methoxyspiro[cyclohexane-1,1′-isoindolin]-3′-one]
The pIC50 of the first is higher: 6.00 to 7.30 for the first, 4.00 to 6.00 for the second. The first is the more potent here.

Compared with `COc1cncnc1Nc1cc(C)c2c(c1)C1(CCN(C)CC1)NC2=O` [Cpd. No. 60, 6-((5-methoxypyrimidin-4-yl)amino)-1′,4-dimethylspiro [isoindoline-1,4′-piperidin]-3-one], `Cc1cc(Nc2ncncc2C#N)cc2c1C(=O)NC21CCN(C)CC1` [Cpd. No. 61, 4-((1′,4-dimethyl-3-oxospiro[isoindoline-1,4′-piperidin]-6-yl)amino)pyrimidine-5-carbonitrile trifluoroacetic acid salt] is lower in pIC50: 6.00 to 7.30 for the first, 4.00 to 6.00 for the second. The first is the more potent here.

Compared with `Cc1cc(Nc2ncnc(N)c2S(C)(=O)=O)cc2c1C(=O)NC21CCCCC1` [Cpd. No. 86, 6′-((6-amino-5-(methylsulfonyl)pyrimidin-4-yl)amino)-4′-methylspiro[cyclohexane-1,1′-isoindolin]-3′-one], `Cc1cc(Nc2ncnc(N)c2C#N)cc2c1C(=O)NC21CCCCC1` [Cpd. No. 77, 4-amino-6-((4′-methyl-3′-oxospiro[cyclohexane-1,1′-isoindolin]-6′-yl)amino)pyrimidine-5-carbonitrile] is higher in pIC50: 6.00 to 7.30 for the first, over 7.30 for the second. The second is the more potent here.

First: Cc1cc(Nc2ncnc(N)c2C)cc2c1C(=O)NC2 [Cpd. No. 106, 5-((6-amino-5-methylpyrimidin-4-yl)amino)-7-methylisoindolin-1-one]
Second: CCOc1c(N)ncnc1Nc1cc(C)c2c(c1)C1(CCCCC1)NC2=O [Cpd. No. 76, 6′-((6-amino-5-ethoxypyrimidin-4-yl)amino)-4′-methylspiro[cyclohexane-1,1′-isoindolin]-3′-one]
The pIC50 of the first is lower: 4.00 to 6.00 for the first, 6.00 to 7.30 for the second. The second is the more potent here.

Compared with `Cc1cc(Nc2ncnc3[nH]ccc23)cc2c1C(=O)NC21CCCCC1` [Cpd. No. 75, 6′-((7H-pyrrolo[2,3-d]pyrimidin-4-yl)amino)-4′-methylspiro[cyclohexane-1,1′-isoindolin]-3′-one], `Cc1cc(Nc2ncnc(N)c2OCCN)cc2c1C(=O)NC21CCCCC1` [Cpd. No. 81, 6′-((6-amino-5-(2-aminoethoxy)pyrimidin-4-yl)amino)-4′-methylspiro[cyclohexane-1,1′-isoindolin]-3′-one hydrochloride] is lower in pIC50: over 7.30 for the first, 6.00 to 7.30 for the second.

`Cc1cc(Nc2ncnc(N)c2C(F)(F)F)cc2c1C(=O)NC21CCCCC1` [Cpd. No. 80, 6′-((6-amino-5-(trifluoromethyl)pyrimidin-4-yl)amino)-4′-methylspiro[cyclohexane-1,1′-isoindolin]-3′-one] and `Cc1c(N)ncnc1Nc1cc(C(F)(F)F)c2c(c1)C1(CCCCC1)NC2=O` [Cpd. No. 79, 6′-((6-amino-5-methylpyrimidin-4-yl)amino)-4′-(trifluoromethyl)spiro[cyclohexane-1,1′-isoindolin]-3′-one] fall in the same range of pIC50: 6.00 to 7.30 for the first, 6.00 to 7.30 for the second.

Compared with `Cc1c(N)ncnc1Nc1cc(C#N)c2c(c1)C1(CCCCC1)NC2=O` [Cpd. No. 91, 6′-((6-amino-5-methylpyrimidin-4-yl)amino)-3′-oxospiro[cyclohexane-1,1′-isoindoline]-4′-carbonitrile], `Cc1cc(Nc2ncnc(N)c2OCCCN)cc2c1C(=O)NC21CCCCC1` [Cpd. No. 87, 6′-((6-amino-5-(3-aminopropoxy)pyrimidin-4-yl)amino)-4′-methylspiro[cyclohexane-1,1′-isoindolin]-3′-one hydrochloride salt] is higher in pIC50: 4.00 to 6.00 for the first, 6.00 to 7.30 for the second.

`COc1c(Nc2ncnc(N)c2C)cc(C)c2c1C1(CCCCC1)NC2=O` [Cpd. No. 94, 6′-((6-amino-5-methylpyrimidin-4-yl)amino)-7′-methoxy-4′-methylspiro[cyclohexane-1,1′-isoindolin]-3′-one] was tested, and the pIC50 was 6.00 to 7.30.

From patent US10112955B2, “Isoindoline, azaisoindoline, dihydroindenone and dihydroazaindenone inhibitors of Mnk1 and Mnk2” (eFFECTOR THERAPEUTICS, INC., priority 2015, dated 2018)
